Results: patent US10358439B2, “DNA binding agents with a minor groove binding tail” (Board of Regents, The University of Texas System, priority 2015, dated 2019)
Where two headings read alike, the source gives them in different places.

Tests used:
Colo357-FG = experiment: in vitro antitumor activity, Colo357-FG; assay type: cell-based; conditions: Colo357-FG cells
U87 = experiment: in vitro antitumor activity, U87; assay type: cell-based; conditions: U87 (U87-MG brain tumor) cells
H441 = experiment: in vitro antitumor activity, H441; assay type: cell-based; conditions: H441 cells
D54 = experiment: in vitro antitumor activity, D54; assay type: cell-based; conditions: D54 cells
[1] = 5-mice pilot single-dose pharmacokinetic study, plasma and brain; assay type: in vivo; conditions: mouse, iv, 5 mg/kg, one hour following a single ~5 mg/kg intravenous dose
Method: WP1244 has a relatively high molecular weight (MW) (981.3) having a polyamide moiety attached to the amino sugar. A previous 5-mice pilot study performed with WP1244 confirmed the presence of WP1244 in murine brain tissue, and mean normalized concentrations in the plasma and brain were 283+/−128 ng/mL (range 159-487 ng/mL) and 122+/−67.6 ng/g (range 43-203 ng/g), respectively, one hour following a single ˜5 mg/kg intravenous dose. This pilot single-dose pharmacokinetic study was followed by a complete single-dose pharmacokinetic/biodistribution study which was designed to better elucidate the plasma time-course and tissue biodistribution, particularly in brain tissue, of WP1244. This study involve the use of 55 animals and a dose of 10 mg/kg. The experiment was conducted over a 24 h interval and the methods and results are outlined below.

[2] = acute clinically observable toxicity after IV bolus; assay type: in vivo; conditions: mice, 10 mg/kg intravenous bolus, up to 24 hours following dosing
Method: (§1) Mouse Plasma PK and Brain Distribution Study following Single IV Dose—WP1244 was administered intravenously by rapid IV push to 55 male CD1 mice (Charles River Lab, Wilmington, Mass.) at a dose of 10 mg/kg. Each mouse (mean weight 22.0 g, range 20.7-26.6 g) was given a volume of 0.1 mL of a 2.2 mg/mL WP1244 solution formulated in DMSO:water (50:50, v/v). Five animals were assigned to one of 11 groups segregated by time, spanning the length of the 24-hour study period. One cohort of animals was sacrificed at each of the following time points and mouse plasma and tissues of interest, were harvested for analysis. The time points were as follows: 5, 15, 30, 45 minutes, 1, 2, 4, 6, 8, 12, and 24 hours following administration by intravenous bolus. Samples (plasma and tissues) were frozen and stored at −80° C. until subsequent analysis by LC/MS/MS.

[3] = in vitro IC50, cells not stated; assay type: cell-based; conditions: cell lines not stated
[4] = Mouse Plasma PK and Brain Distribution Study following Single IV Dose; assay type: in vivo, male CD1 mice; design: Mean peak plasma concentration / area-under-the-curve: unit not given here; conditions: mice, 10 mg/kg IV; for Kp / Vd: iv, 10 mg/kg
Method: as §1
Sample preparation and drug isolation (extraction) from plasma utilized the same fundamental approach used in pharmacokinetic and biodistribution studies of other anthracyclines previously conducted by the inventors. Briefly, WP1244 was extracted from a volume (0.1 mL) of mouse plasma using a solid-phase extraction method. Liquid-liquid extraction by a chloroform: 2-propanol (80:20, v/v) mixture was utilized to isolate the analyte from mouse brain tissue. An 8-point plasma extracted calibration curve was created to span a dynamic concentration range of WP1244 of 1-1000 ng/mL (1, 2.5, 10, 25, 50, 100, 500, and 1000 ng/mL) for the quantitative measurement of WP1244 extracted from mouse plasma, while a brain tissue derived calibration curve was utilized for determination of brain tissue concentrations of drug over a range of 10-1000 ng/g tissue. Samples exceeding the dynamic range of the calibration curve were re-analyzed following dilution in extraction buffers.
Quantitative sample analysis was performed by chromatographic separation and identification/quantification using mass spectrometry (LC/MS/MS); the specific instrumentation used was an Agilent HP1100 Series liquid chromatograph in tandem with a Micromass Quattro Micro (Micro2) mass spectrometer. A Phenomenex® Luna C5, 4.6×50 mm, 3.5 μm) analytical column was used for chromatographic separation and peak resolution. As mentioned before, sample analysis utilized the same fundamental validated methods developed previously for the quantitative analysis of other anthracyclines studied by the inventors.

In the case of `COc1cccc2c1C(=O)c1c(O)c3c(c(O)c1C2=O)C[C@](O)(C(C)=O)C[C@H]3OC1CC(NCc2ccc(NC(=O)c3cc(NC(=O)c4cc(NC(=O)c5cccn5C)cn4C)cn3C)cc2)C(O)C(C)O1` (stereo in doubt) [WP1243], the IC50 (Colo357-FG; COLO 357/FG) is reported as 76.2 nM and the IC50 (U87; Homo sapiens, U-87 MG) is reported as 8.3 nM.
For `COc1cccc2c1C(=O)c1c(O)c3c(c(O)c1C2=O)C[C@](O)(C(C)=O)C[C@H]3OC1CC(NCc2ccc(NC(=O)c3cc(NC(=O)c4cc(NC(=O)c5cc(NC=O)cn5C)cn4C)cn3C)cc2)C(O)C(C)O1` (stereo in doubt) [WP1249], the IC50 (Colo357-FG; COLO 357/FG) was 51.2 nM and the IC50 (U87; Homo sapiens, U-87 MG) was 7.7 nM.
With `COc1cccc2c1C(=O)c1c(O)c3c(c(O)c1C2=O)C[C@](O)(C(C)=O)C[C@H]3OC1CC(NCc2ccc(NC(=O)c3cc(NC(=O)c4cc(NC(=O)c5cc([N+](=O)[O-])cn5C)cn4C)cn3C)cc2)C(O)C(C)O1` (stereo in doubt) [WP1276] the IC50 (Colo357-FG; COLO 357/FG) was 443 nM and the IC50 (U87; Homo sapiens, U-87 MG) was 27.8 nM.
In the case of `COc1cccc2c1C(=O)c1c(O)c3c(c(O)c1C2=O)C[C@@](O)(C(C)=O)C[C@H]3OC1CC(NC(=O)c2cc(NC(=O)c3cc(NC(=O)c4cccn4C)cn3C)cn2C)C(O)C(C)O1` (stereo in doubt) [WP1277], the IC50 (Colo357-FG; COLO 357/FG) is reported as 4240 nM and the IC50 (U87; Homo sapiens, U-87 MG) is reported as 105 nM.
Molecule `COc1cccc2c1C(=O)c1c(O)c3c(c(O)c1C2=O)C[C@@](O)(C(C)=O)C[C@@H]3O[C@H]1C[C@H](N)[C@H](O)[C@H](C)O1` [DNR, reference compound] has an IC50 (H441) of 15.9 nM, an IC50 (Colo357-FG) of 46.4 nM and an IC50 (D54) of 231 nM. The IC50 (U87) was 143 nM.
`COc1cccc2c1C(=O)c1c(O)c3c(c(O)c1C2=O)C[C@](O)(C(C)=O)C[C@H]3OC1CC(NCc2ccc(NC(=O)c3cc(NC(=O)c4cc(NC(=O)c5ccccn5)cn4C)cn3C)cc2)C(O)C(C)O1` (stereo partly shown) [WP1244] gave a concentration at 1 h ([1]; brain, read-out: mean normalized concentration in brain) of 122 ng/g, a concentration at 1 h ([1]; brain, read-out: range of normalized concentration in brain) of 43 to 203 ng/g and a concentration at 1 h ([1]; plasma, read-out: mean normalized concentration in plasma) of 283 ng/mL. For the same molecule, the concentration at 1 h ([1]; plasma, read-out: range of normalized concentration in plasma) was 159 to 487 ng/mL, the “acute clinically observable toxicity” value [2] was “no acute clinically observable toxicity” and the IC50 (H441; Homo sapiens, NCI-H441) was 0.91 nM. The IC50 (Colo357-FG; COLO 357/FG) was 3.1 nM, the “in vitro IC50 values” [3] was “subnanomolar range” and the Kp ([4]; male, CD1, mouse, brain, 0 to 8 hour interval, read-out: fold higher concentration in brain tissue than plasma) was 3 to 4. For the same molecule, the Kp ([4]; male, CD1, mouse, brain, over the measured interval (except 5 min timepoint), read-out: brain tissue to plasma concentration ratio) was > 1, the concentration at 24 h ([4]; male, CD1, mouse, brain, at 24 hours, read-out: nadir brain tissue concentration) was > 100 ng/g and the Vd ([4]; male, CD1, mouse, plasma, 2-compartment model, read-out: volume of distribution Vc) was 0.0097 L/kg. The Vd ([4]; male, CD1, mouse, plasma, 2-compartment model, read-out: volume of distribution Vp) was 0.326 L/kg, the Vd ([4]; male, CD1, mouse, plasma, 2-compartment model, read-out: volume of distribution Vss) was 0.336 L/kg and the clearance ([4]; male, CD1, mouse, plasma, 2-compartment model, read-out: Drug clearance (converted)) was 0.683 mL/min/kg. For the same molecule, the concentration at 24 h ([4]; male, CD1, mouse, plasma, 24 hours after IV bolus injection, read-out: mean nadir plasma concentration) was 21.5 ng/mL, the “mean peak concentration in brain tissue” value ([4]; at 15 minutes post dose) was 915 ng/g tissue and the “Mean peak plasma concentration” value ([4]; five minutes after drug administration) was 3.7. For the same molecule, the area-under-the-curve ([4]; plasma) was 250, the “time of peak concentration in brain tissue” value ([4]; post dose) was 15 min and the IC50 (D54; Homo sapiens) was 1.08 nM. The IC50 (U87; Homo sapiens, U-87 MG) was 0.2 nM.
